From patent US9718809B2, “Bisarylsulfonamides useful in the treatment of inflammation and cancer” (Kancera AB, priority 2011, dated 2017)
pIC50: −log10 of the molar value.

Columns and labels:
[1] = system: F-2,6-P2 in MIA PaCa-2 cells; experiment: Quantification of F-2,6-P2 (Van Schaftingen coupled enzyme assay) in MIA PaCa-2 cells; assay type: cell-based; details: Homo sapiens, read-out: IC50 based on quantification of F-2,6-P2
From the text: (§1) A method for quantification of F-2,6-P2 has been described by Van Schaftingen et al. (1982) Eur. J. Biochem. 129, 191-5. This sensitive assay is based on the potent activation of pyrophosphate dependent phosphofructokinase-1 (PPi-PFK) from potato tubers by F-2,6-P2. The use of a series of coupled enzymes leads to a consumption of NADH (nicotinamide adenine dinucleotide) that can be followed spectrophotometrically (an updated protocol is available in Van Schaftingen, (1984) Methods of Enzymatic Analysis (Bergmeyer, H. U., ed.), 3rd edn., vol. 6, pp. 335-341, Verlag Chemie, Weinheim). A protocol for measurements in 96-well microtiter plate format is also available (Bruni et al., (1989) Anal. Biochem. 178, 324-6).
(§2) The levels of F-2,6-P2 have been determined using the van Shaftingen assay as described in the protocol below, in six different cancer cell lines endogenously expressing varying levels of the different isoforms of PFK-2/BPase-2 (MCF-7, PANC-1, NUGC-3, SW480, SW620 and MIA PaCa-2). All reagents were purchased from commercial sources or prepared in-house.
Cell line F (MIA PaCa-2, human pancreatic carcinoma): MIA PaCa-2 cells (ATCC-CRL-1420), lot. no. 59270201. Cells were seeded at a concentration of ˜250 000 cells/mL in 100 μL growth medium (˜25 000 cells/well). […]

[2] = Cell toxicity, CellTiter-Blue Cell Viability Assay; details: human, MIA PaCa-2 pancreatic carcinoma cells, MIA PaCa-2 cells, 72 h culture, read-out: IC50 based on cell toxicity
Description: The CellTiter-Blue® Cell Viability Assay provides a homogeneous, fluorometric method for estimating the number of viable cells present in multi-well plates. It uses the indicator dye resazurin to measure the metabolic capacity of cells. Viable cells retain the ability to reduce resazurin into resorufin, which is highly fluorescent.
Stock solutions (10 or 100 mM in DMSO) of compounds were serially diluted 1:2 in 11 concentrations. 25 nL/well (100 mM stock) or 50 nL/well (10 mM stock) were acoustically dispensed in assay plates with EDC acoustic dispenser. Final starting conc. in assay was 20 μM (0.2% DMSO) or 100 μM (0.1% DMSO) for test compounds.
Cells (MIA-PaCa-2; pancreatic carcinoma) were seeded in assay plates (384-well black/clear, Greiner #781091) pre-dispensed with compounds, 25 μL/well, and cultured for 72 h. The cell concentration was 750 cells/well. After 72 h culture, Celltiter Blue reagent was added (5 μL/well) and the plates were incubated for 2 h. The plates were read in an Envision fluorescence reader with Ex544 nm/Em590 nm. Results were calculated as % cytotoxicity compared to background (cells treated with 0.2% DMSO).

[3] = In vitro metabolic stability in human liver microsomes; assay type: in vitro ADME; details: pH 7.4, pooled human liver microsomes 0.5 mg/ml, NADPH 1 mM, compound 3 μM
Description: Pooled human liver microsomes (final protein conc 0.5 mg/ml), 0.1 M phosphate buffer (pH 7.4) and NADPH (final conc 1 mM) were pre-incubated at 37° C. Example 183 (final conc 3 μM) was added to initiate the reaction. A control incubation where 0.1 M phosphate buffer (pH 7.4) was added instead of NADPH was done as a parallel experiment. After incubation for 0, 5, 10, 30 and 45 min with NADPH (for 45 min in the control incubation), MeCN containing internal standard was added to stop the reactions. The samples were centrifuged at 2500 rpm for 20 min at 4° C. before analysis using LC-MS/MS.

NMRI mice = experiment: In vivo tolerance in NMRI mice; parameters: species or system mouse; details: 25 and 45 mg/kg
Description: In vivo tolerance was tested in NMRI mice using Examples 157 and 183 in 2 doses (25 and 45 mg/kg), following intraperitoneal injections daily for seven days.

MIA PaCa-2 xenografts = experiment: Inhibition of tumour growth, MIA PaCa-2 xenografts in NMRI nude mice; assay type: in vivo, mouse; details: 45 mg/kg twice a day, 3 weeks
Description: FIG. 3 illustrates the effects of treatment with Example 183 on the growth of established xenografts from the human pancreatic carcinoma cell line MIA PaCa-2 in NMRI nude mice. NMRI nude mice were injected subcutaneously with MIA PaCa-2 cells. At an average tumor size of around 100 mm^3 mice were selected and randomized into treated (injected with substance) and control (vehicle treated) groups. Example 183 was administered at two doses, 25 mg/kg and 45 mg/kg, twice a day with 12 hours between administrations. From the day of inoculation the tumors were scored or measured three times a week using a digital caliper, and the body weights were determined at the same time points. The dose of injected substance was adjusted to the actual body weight of each animal. The dosing of the animals was in a period of 3 weeks.

[4] = Plasma exposure in NMRI nude mice; assay type: in vivo, mouse; details: 45 mg/kg, 0.5 h after last injection (day 21)
Description: In a related study using the same dosing schedule in NMRI nude mice, blood samples were drawn 0.5 h after last injection (day 21) to determine exposure of Example 183. Plasma, prepared by centrifugation of the blood, was frozen and kept at −20° C. Thawed plasma samples were precipitated with MeCN, centrifuged and the supernatants were analyzed by LC-MSMS. Standard samples, prepared by spiking blank plasma with Example 183, were used for quantification.

F-2,6-P2 in MCF-7 cells = experiment: Quantification of F-2,6-P2 (Van Schaftingen coupled enzyme assay) in MCF-7 cells; assay type: cell-based; details: Homo sapiens, MCF7, read-out: IC50 based on quantification of F-2,6-P2
From the text: as §1, §2
Cell line A (MCF-7, human breast adenocarcinoma cell line): MCF-7 cells (ATCC-HTB-22), lot. no. 58469417. […]

pIC50 [1] | half-life at 3 μM [3] [min] | microsomal CLint at 3 μM ([3]; read-out: intrinsic clearance) [µL/min/mg] | exposure of unbound compound in plasma versus in vitro IC50 value (MIA PaCa-2 cells) [4] | pIC50 (F-2,6-P2 in MCF-7 cells) | SMILES | IC50 at 72 h [2] [nM] | histological examinations of organs (NMRI mice; intraperitoneal daily for seven days, adrenal gland, brain, cerebellum, heart, intestines, kidneys, liver, lungs, mesenteric lymph node, pancreas, spleen) | macro observations during and after treatment (NMRI mice; intraperitoneal injections daily for seven days) | tumor growth compared to a vehicle treated group (MIA PaCa-2 xenografts)
6.70 | 55 | 25 | exceeded the in vitro IC50 value | – | O=C(OCCO)c1ccc(NS(=O)(=O)c2cccc(-c3cc(F)ccc3O)c2)cc1O [Example 183, 2-Hydroxyethyl 4-{[(5′-fluoro-2′-hydroxybiphenyl-3-yl)sulfonyl]amino}-2-hydroxybenzoate] | 2600 | Specific lesions consistent with toxic damage were not observed | no sign of abnormal behavior or health problem | significant inhibition (p<0.01)
– | – | – | – | 6.05 | COCCOC(=O)c1ccc(NS(=O)(=O)c2cc(-c3ccc4c(c3)CCO4)c(Cl)s2)cc1O [Example 76, 2-Methoxyethyl 4-({[5-chloro-4-(2,3-dihydro-1-benzofuran-5-yl)-2-thienyl]sulfonyl}amino)-2-hydroxybenzoate] | – | – | – | –
